Laboratory results: patent US4036846A, “3-Hydroxy and 3-acetoxy-6-triphenyl-methylaminopenams” (priority 1976, dated 1977)
“And” between values parts separate entries of the source, which are not always exact repeats. Equal values may be shown once. Where a name gives a salt, the structure may show the parent alone. Read-outs that look alike come from different tables or passages of the source.

How the values were obtained:
Assay in all cases: microbe, parasite or virus in culture
Staph. aureus 01A005 = type: cell-based, Staphlococcus aureus; settings: brain-heart infusion agar, 37° C., anaerobic, sodium salts, separate Test Nos. 1-3; for MIC: Staphylococcus aureus
Staph. aureus 01A006 = type: cell-based, Staphlococcus aureus; settings: brain-heart infusion agar, 37° C., anaerobic, sodium salts, separate Test Nos. 1-3; for MIC: Staphylococcus aureus
Strep. zoo. 02H001 = type: cell-based, Streptococcus zoobacter; settings: brain-heart infusion agar, 37° C., anaerobic, sodium salts, separate Test Nos. 1-3; for MIC: Streptococcus
Strep. equi. 02I001 = type: cell-based, Streptococcus equis; settings: brain-heart infusion agar, 37° C., anaerobic, sodium salts, separate Test Nos. 1-3

Molecule `COP(=O)(O)C1N2C(=O)C(NC(=O)COc3ccccc3)C2SC1(C)C` (centres unmarked) [6-(2-Phenoxyacetamido)-2,2-dimethyl-3-(0-methylphosphono)penam, sodium salt] has an MIC (Staph. aureus 01A005; Staph. aureus 01A005, read-out: MIC (minimal inhibitory concentration)) of 200 µg/mL, an MIC (Staph. aureus 01A006; Staph. aureus 01A006, read-out: MIC (minimal inhibitory concentration)) of 200 µg/mL and an MIC (Strep. zoo. 02H001; Strep. zoo. 02H001, read-out: MIC (minimal inhibitory concentration)) of over 200 µg/mL.

With `CC1(C)S[C@@H]2C(NC(=O)COc3ccccc3)C(=O)N2C1P(=O)(O)O.[Na]` (some centres unmarked) [6-(2-Phenoxyacetamido)-2,2-dimethyl-3-phosphonopenam, sodium salt] the “MIC (minimal inhibitory concentration)” value (Strep. equi. 02I001; Strep. equi. 02I001, sodium salt) was 100 µg/mL, the MIC (Strep. equi. 02I001; Streptococcus equi, read-out: MIC (minimal inhibitory concentration), Strep. equi. 02I001) was over 200 µg/mL and the “MIC (minimal inhibitory concentration)” value (Staph. aureus 01A005; Staph. aureus 01A005, sodium salt) was over 200 µg/mL. The MIC (Staph. aureus 01A005; 01A005, read-out: MIC (minimal inhibitory concentration), Staph. aureus 01A005) was 200 µg/mL, the “MIC (minimal inhibitory concentration)” value (Staph. aureus 01A006; Staph. aureus 01A006, sodium salt) was over 200 µg/mL and the MIC (Staph. aureus 01A006; 01A006, read-out: MIC (minimal inhibitory concentration), Staph. aureus 01A006) was 200 µg/mL. For the same molecule, the “MIC (minimal inhibitory concentration)” value (Strep. zoo. 02H001; Strep. zoo. 02H001, sodium salt) was 100 µg/mL and 200 µg/mL and the MIC (Strep. zoo. 02H001; read-out: MIC (minimal inhibitory concentration), Strep. zoo. 02H001) was over 200 µg/mL.
